Key:
male dd-strain rats = experiment: Acute toxicity test (minimum lethal dose); assay type: in vivo; conditions: mortality for 7 days
Method: Groups of male dd-strain rats (each group consisting of five rats) weighing 20±1 g were used. The compounds of the present invention were administered orally (po: 0.3 mg/g) or intraperitoneally (ip: 0.1 mg/g). The MLD (minimum lethal dose) was calculated from the mortality for 7 days after the administration to obtain the results given in Table 1.

[1] = tested on: isolated ileum of guinea-pig; experiment: Test for anticholinergic effects on the isolated ileum of guinea-pig (acetylcholine contraction, in vitro); parameters: species or system guinea-pig (male Hartly-strain); conditions: Cavia porcellus, 0.05 h; depressing ratio of 80% or more of acetylcholine contraction; compound 3 minutes before; read-out: Anticholinergic activity: MED (minimum effective dose)
Method: (§1) Male Hartly-strain guinea-pigs weighing about 250 g are killed and the abdomen is opened. The part (2-3 cm in length) of the ileum 10 cm away from the caecum to the pylorus is cut off as a preparation. The preparation is suspended with serre-fine in a Magnus bath containing 10 ml of Tyrode's solution at 32±1° C. under an air bubble. The contraction of the ileum is recorded on Kymograph through hebel when 0.1 ml of acetylcholine at a concentration of 10^-3 g/ml is added to the Tyrode's solution.
(§2) On the other hand, 3 minutes after administration of the test compounds, the same procedure as mentioned above is carried out to record the contraction.

[2] = tested on: isolated ileum of guinea-pig; experiment: Test for antihistaminergic effects on the isolated ileum of guinea-pig (histamine contraction, in vitro); parameters: species or system guinea-pig (male Hartly-strain); conditions: Cavia porcellus, 0.05 h; depressing ratio of 80% or more of histamine contraction; read-out: Antihistaminergic activity: MED
Method: as §1, §2
In this test, 0.1 ml of histamine at a concentration of 5×10^-3 g/l is used.

[3] = tested on: blood platelets (platelet-rich plasma); experiment: Test for the inhibition of platelet aggregation (collagen-induced, platelet-rich plasma); assay type: cell-based, male white rabbits; conditions: Oryctolagus cuniculus, Platelet, 0.05 h; depressing ratio of 50% of collagen-induced aggregation; compound 3 minutes before; read-out: Antiplatelet aggregation activity: MED
Method: In this test, 9 vols. of blood are sampled from the caroted artery of male white rabbits weighing 2 to 2.5 kg and placed in a silicon-coated flask containing 1 vol. of 3.8% sodium citrate. The thus obtained blood is centrifuged at 1,000 rpm for 15 minutes to obtain platelet-rich plasma. The aggregation of the blood platelets is observed using an aggregometer, when collagen is added to the platelet-rich plasma to the extent of the final concentration that 50% of platelet aggregation is caused in the presence of 100 γ/ml of aspirin. On the other hand, 3 minutes after administration of the test compounds to the platelet-rich plasma, the same procedure as mentioned above is carried out to observe the aggregation of blood platelet. The test compounds showing a depressing ratio of 50%, compared with the inhibition of aggregation by collagen alone, are concluded to have antiplatelet aggregation activity.

Row | Compound | Acute toxicity: MLD (minimum lethal dose) (male dd-strain rats; ip) [mg/kg] | Acute toxicity: MLD (minimum lethal dose) (male dd-strain rats; po) [mg/kg] | minimal effective concentration [1] [µg/mL] | minimal effective concentration [2] [µg/mL] | minimal effective concentration [3] [µg/mL]
1 | CCc1ccc2c(c1)C(NCCCN(CC)CC)c1ccccc1CO2 (stereo not drawn) [Compound 2, 2-ethyl-11-{3-(diethylamino)propyl}amino-6,11-dihydrodibenz[b,e]oxepin] | 100 | 300 | 10 | 1 | 1
2 | CCN(CC)CCCNC1c2ccccc2COc2ccc(F)cc21 (stereo not drawn) [Compound 3, 2-fluoro-11-{3-(diethylamino)propyl}amino-6,11-dihydrodibenz[b,e]oxepin] | > 100 | > 300 | 10 | 10 | 20
3 | CCN(CC)CCCNC1c2ccccc2COc2ccc(C)cc21 (stereo not drawn) [Compound 4, 2-methyl-11-{3-(diethylamino)propyl}amino-6,11-dihydrodibenz[b,e]oxepin] | 100 | 300 | 10 | 10 | 20
4 | CCN(CC)CCCNC1c2ccccc2COc2ccc(Cl)cc21 (stereo not drawn) [Compound 5, 2-chloro-11-{3-(diethylamino)propyl}amino-6,11-dihydrodibenz[b,e]oxepin] | > 100 | 300 | 1 | 1 | 20
5 | CCN(CC)CCCNC1c2ccccc2COc2c(C)cccc21 (stereo not drawn) [Compound 6, 4-methyl-11-{3-(diethylamino)propyl}amino-6,11-dihydrodibenz[b,e]oxepin] | 100 | 300 | 3 | 10 | 20
6 | CCN(CC)CCCNC1c2ccccc2COc2ccc(OC)cc21 (stereo not drawn) [Compound 7, 2-methoxy-11-{3-(diethylamino)propyl}amino-6,11-dihydrodibenz[b,e]oxepin] | 100 | > 300 | 0.3 | 0.3 | 
7 | CCc1ccc2c(c1)C(NCCCN(C)C)c1ccccc1CO2 (stereo not drawn) [Compound 15, 2-ethyl-11-{3-(dimethylamino)propyl}amino-6,11-dihydrodibenz[b,e]oxepin] | > 100 | > 300 | 3 | 3 | 20
8 | Cc1ccc2c(c1)C(NCCN1CCNCC1)c1ccccc1CO2 (stereo not drawn) [Compound 25, 2-methyl-11-{2-(1-piperazinyl)ethyl}amino-6,11-dihydrodibenz[b,e]oxepin] | > 100 | > 300 | 10 | 10 | 20
9 | CCc1ccc2c(c1)C(NCCN1CCNCC1)c1ccccc1CO2 (stereo not drawn) [Compound 26, 2-ethyl-11-{2-(1-piperazinyl)ethyl}amino-6,11-dihydrodibenz[b,e]oxepin] | > 100 | > 300 | 3 | 3 | 5
10 | CCN1CCCC(NC2c3ccccc3COc3ccc(C)cc32)C1 (stereo not drawn) [Compound 27, 2-methyl-11-(1-ethyl-3-piperidyl)amino-6,11-dihydrodibenz[b,e]oxepin] | > 100 | 300 | 1 | 10 | 100
11 | Fc1ccc2c(c1)C(NCC1COc3ccccc3O1)c1ccccc1CO2 (stereo not drawn) [Compound 30, 2-fluoro-11-{(1,4-benzodioxane-2-)methyl}amino-6,11-dihydrodibenz[b,e]oxepin] | > 100 | > 300 | 10 | 10 | 
12 | CC(CCc1ccccc1)NC1c2ccccc2COc2ccc(F)cc21 (stereo not drawn) [Compound 32, 2-fluoro-11-{(1-methyl-3-phenyl)propyl}amino-6,11-dihydrodibenz[b,e]oxepin] | > 100 | > 300 | 3 |  | 
13 | Cc1ccc2c(c1)C(NCCc1ccccn1)c1ccccc1CO2 (stereo not drawn) [Compound 36, 2-methyl-11-{2-(2-pyridyl)ethyl}amino-6,11-dihydrodibenz[b,e]oxepin] | 100 | 200 | 10 | 3 | 100
14 | Cc1ccc2c(c1)C(N1CCN(CCO)CC1)c1ccccc1CO2 (stereo not drawn) [Compound 37, 2-methyl-11-{4-(2-hydroxyethyl)-1-piperazinyl}-6,11-dihydrodibenz[b,e]oxepin] | > 100 | > 300 | 10 | 10 | 50
15 | Cc1ccc2c(c1)C(N1CCN(CCN)CC1)c1ccccc1CO2 (stereo not drawn) [Compound 44, 2-methyl-11-{4-(2-aminoethyl)-1-piperazinyl}-6,11-dihydrodibenz[b,e]oxepin] | 100 | > 300 | 10 | 10 | 
16 | CCc1ccc2c(c1)C(N1CCN(CCN)CC1)c1ccccc1CO2 (stereo not drawn) [Compound 45, 2-ethyl-11-{4-(2-aminoethyl)-1-piperazinyl}-6,11-dihydrodibenz[b,e]oxepin] | 100 | > 300 | 10 | 10 | 100
17 | NCCN1CCN(C2c3ccccc3COc3ccc(F)cc32)CC1 (stereo not drawn) [Compound 46, 2-fluoro-11-{4-(2-aminoethyl)-1-piperazinyl}-6,11-dihydrodibenz[b,e]oxepin] | > 100 | > 300 |  | 1 | 50
18 | CN1CCN(C2c3ccccc3COc3c(-c4ccccc4)cccc32)CC1 (stereo not drawn) [Compound 47, 4-phenyl-11-(4-methyl-1-piperazinyl)-6,11-dihydrodibenz[b,e]oxepin] | 100 | 200 | 3 | 10 | 10
19 | CCN(CC)CCNC1c2ccccc2COc2ccc(C3CCCCC3)cc21 (stereo not drawn) [Compound 48, 2-cyclohexyl-11-{2-(diethylamino)ethyl}amino-6,11-dihydrodibenz[b,e]oxepin] | 100 | > 300 | 3 | 3 | 100
20 | CN(C)CCCNC1c2ccccc2COc2ccc(F)cc21 (stereo not drawn) [Compound 49, 2-fluoro-11-{3-(dimethylamino)propyl}amino-6,11-dihydrodibenz[b,e]oxepin] | > 100 | > 300 | 3 | 1 | 50
21 | c1ccc2c(c1)COc1ccc(C3CCCCC3)cc1C2NC1CN2CCC1CC2 (stereo not drawn) [Compound 54, 2-cyclohexyl-11-(3-quinuclidinyl)amino-6,11-dihydrodibenz[b,e]oxepin] | 100 | > 300 | 10 | 1 | 
22 | CCN(CCN(C)C)C1c2ccccc2COc2ccc(C)cc21 (stereo not drawn) [Compound 64, 2-methyl-11-[N-{2-(dimethylamino)ethyl}-N-ethyl]amino-6,11-dihydrodibenz[b,e]oxepin] | > 100 | > 300 | 10 | 10 | 
